Source: PubChem BioAssay (NCI)
“And” between values parts separate entries of the source, which are not always exact repeats. Identical values can stand only once.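 Where inhibition never reached the appropriate level, the endpoint shown equals the highest concentration tested. Otherwise, values were interpolated linearly from a five-concentration, 48-hour dose response in 96-well plates. At the GI50, growth is halved. TGI is the concentration that stops growth completely.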

Tests used:
Test in all cases: NCI-60 cell line screen, 48 h
CAKI-1 renal = tested on: CAKI-1 renal
TK-10 renal = tested on: TK-10 renal
MDA-MB-231 breast = tested on: MDA-MB-231 breast
KM12 colon = tested on: KM12 colon
SK-OV-3 ovarian = tested on: SK-OV-3 ovarian
SF-268 CNS = tested on: SF-268 CNS
SK-MEL-28 melanoma = tested on: SK-MEL-28 melanoma
HCT-116 colon = tested on: HCT-116 colon
PC-3 prostate = tested on: PC-3 prostate
NCI-H460 lung = tested on: NCI-H460 lung

Row | SMILES | GI50 (CAKI-1 renal) | TGI (CAKI-1 renal) | GI50 (TK-10 renal) | TGI (TK-10 renal) | GI50 (MDA-MB-231 breast) | TGI (MDA-MB-231 breast) | GI50 (KM12 colon) | TGI (KM12 colon) | GI50 (SK-OV-3 ovarian) | TGI (SK-OV-3 ovarian) | GI50 (SF-268 CNS) | TGI (SF-268 CNS) | GI50 (SK-MEL-28 melanoma) | TGI (SK-MEL-28 melanoma) | GI50 (HCT-116 colon) | TGI (HCT-116 colon) | GI50 (PC-3 prostate) | TGI (PC-3 prostate) | GI50 (NCI-H460 lung) | TGI (NCI-H460 lung)
1 | CC(=O)c1c(C(F)(F)F)n([O-])c2ccccc2[n+]1=O | 1.21 µM | 3.8 µM | 1.2 µM | 5.59 µM | 1.27 µM | 3.61 µM | 1.19 µM | 3.43 µM | 3.17 µM | 23.9 µM | 1.49 µM | 6.13 µM | 3.48 µM | 18 µM | 1.55 µM | 10.5 µM | 1.3 µM | 10.8 µM | 0.857 µM | 10.8 µM
2 | CC1CC(C)CC(C)C(O)/C(C#N)=C/C=C/CC(C2CCCC2C(=O)O)OC(=O)CC(O)C(C)C1 (stereo not drawn) | 0.0166 µM | 0.254 µM and 0.221 µM |  | 0.089 µM and 0.432 µM | 0.0193 µM | 0.0706 µM | 0.0473 µM and < 0.0158 µM | 0.216 µM and 0.227 µM | 0.0369 µM | 0.217 µM and 0.0917 µM | 0.0307 µM | 0.311 µM and 0.117 µM | 0.0262 µM | 0.0847 µM and 0.0392 µM | 0.0473 µM | 0.7 µM and 0.145 µM | 0.0434 µM | 0.205 µM and 0.208 µM | 0.0518 µM | 0.371 µM
3 | O=C1C=CC(=O)c2c1ccc1c3ccccc3n(Cc3ccc([N+](=O)[O-])cc3)c21 |  | > 100 µM |  | > 100 µM |  | > 100 µM |  | > 100 µM |  | > 100 µM |  | > 100 µM |  | > 100 µM |  | > 100 µM |  | > 100 µM |  | > 100 µM
4 | O=C(Nc1cccc(Cl)c1)Nn1cnnc1 | > 50 µM | > 100 µM | > 50 µM | > 100 µM | > 50 µM | > 100 µM | > 50 µM | > 100 µM | > 50 µM | > 100 µM | > 50 µM | > 100 µM | > 50 µM | > 100 µM | > 50 µM | > 100 µM | > 50 µM | > 100 µM | > 50 µM | > 100 µM
5 | N#C[Se]Cc1cc(-c2ccccc2)n(-c2ccc(S(N)(=O)=O)cc2)n1 | 2.07 µM | 5.24 µM | 2.35 µM | 7.83 µM | 0.912 µM | 3.12 µM | 0.881 µM | 3.22 µM | 2.69 µM | 5.26 µM | 0.336 µM | 1.33 µM | 0.359 µM | 1.34 µM | 0.383 µM | 1.32 µM | 0.711 µM | 3.56 µM | 0.264 µM | 0.743 µM
6 | CC(=O)Nc1ccc(-c2cc(C(=O)O)c3cc4ccccc4cc3n2)cc1 |  | > 100 µM |  | > 100 µM |  | > 100 µM |  | > 100 µM |  | > 100 µM |  | > 100 µM |  | > 100 µM |  | > 100 µM |  | > 100 µM |  | > 100 µM
7 | Nc1nc2ccc(-c3nc4ccc5[nH]ncc5c4c4c3CCC4)cc2s1 | 0.315 µM | 5.51 µM | 1.11 µM | 9.73 µM | 0.511 µM | 11.5 µM | 0.205 µM | 9.01 µM | 0.473 µM | 2.52 µM | 0.478 µM | 20.2 µM | 0.638 µM | 7.89 µM | 0.244 µM | 6.68 µM | 0.308 µM | 14 µM | 0.208 µM | 5.12 µM
8 | CCCN1C(=O)NC(=O)C(CC)(N2C(=O)c3c(F)c(F)c(F)c(F)c3C2=O)C1=O (stereo not drawn) | 1.86 µM | 3.75 µM | 2.29 µM | 6 µM | 1.99 µM | 4.59 µM | 1.42 µM | 2.84 µM | 3.96 µM | 13.2 µM | 2 µM | 5.07 µM | 1.71 µM | 3.22 µM | 1.48 µM | 4.93 µM | 1.95 µM | 5.62 µM | 2.24 µM | 5.71 µM
9 | COc1ccc(-c2noc(C(=O)O)c2-c2cc(OC)c(OC)c(OC)c2)cc1 | 2.35 µM | > 100 µM | > 100 µM | > 100 µM | 7.66 µM | > 100 µM | 0.595 µM | > 100 µM | 3.9 µM | > 100 µM | 7.63 µM | > 100 µM | 37.3 µM | > 100 µM | 0.752 µM | > 100 µM | 1.33 µM | > 100 µM | 2.52 µM | > 100 µM
10 | C/C(=N/O)c1cccc(Nc2cc(-n3nnc4ccccc43)nc3ccccc23)c1 | 16.8 µM | 43.5 µM | 13.6 µM | 50.2 µM | 7.2 µM | > 23.4 µM | 9.48 µM | 28.4 µM | 30.5 µM | > 74.2 µM | 17.2 µM | > 64 µM | 21.1 µM | > 68 µM | 10.3 µM | 26 µM | 8.87 µM | 33.5 µM | 14.7 µM | 46.7 µM
11 | CCN1C(=O)N(CC)C2C1NN=c1s/c(=C\c3ccc(Cl)cc3Cl)c(=O)n12 (stereo not drawn) | 0.0396 µM | 25.7 µM | 13.4 µM | 59.3 µM | 0.0336 µM | 4.79 µM | 0.0274 µM | > 32.6 µM | 0.0448 µM | > 100 µM | 0.0485 µM | > 67.5 µM | 2.48 µM | > 100 µM | 0.0317 µM |  | 0.0408 µM | > 53.4 µM | 0.0347 µM | 15.8 µM
12 | O=C(O)c1nc(NCc2nc3cc(Cl)ccc3o2)n[nH]1 | > 100 µM | > 100 µM | > 100 µM | > 100 µM | > 100 µM | > 100 µM | > 100 µM | > 100 µM | > 100 µM | > 100 µM | > 100 µM | > 100 µM | > 100 µM | > 100 µM | > 100 µM | > 100 µM | > 100 µM | > 100 µM | > 100 µM | > 100 µM
13 | O=S(=O)(Nc1ccc(Br)cc1)c1ccc(-c2cnc(C3CC3)o2)cc1 | 1.07 µM | 15.1 µM | 5.36 µM | 21.5 µM | 3.77 µM | 17.8 µM | 1.13 µM | 17.5 µM | 2.49 µM | 14.3 µM | 5.05 µM | 22.4 µM | 10 µM | 22.9 µM | 2.2 µM | 16 µM | 2.67 µM | 15.5 µM | 2.2 µM | 10.2 µM
